Laboratory results reported in patent US9498423B2, “Synergistic selenopeptide formulations for the protection of dermal papilla cells” (Sami Labs Limited, priority 2012, dated 2016).

Test system: Human dermal papilla cells
Test: UVB stress protection of dermal papilla cells, cell viability by Neutral Red Uptake staining
Format: cell-based
Conditions: UVB 0.432 J/cm^2; Table 1
Method: Human dermal papilla cells were plated into a 96 well flat bottomed clear micro plate at a seeding density of 5000 cells per well. The 24 hour monolayer of cells was exposed to UVB dosages ranging from 0.0072 J/cm^2 to 1.0 J/cm^2 (stress signal) with or without sample (protective formulations) treatment. After exposure, the cells were incubated in a CO2 incubator for 48 hours and developed by NRU (Neutral Red Uptake) staining techniques to analyze cell viability. The absorbance due to viable cells is read at 492 nm in a micro plate reader.

## C[Se]CC[C@H](NC(=O)CC[C@H](N)C(=O)O)C(=O)O [γ-L-glutamyl-L-Selenomethionine]
  Protection of dermal papilla cells, UVB irradiation level 0.432 J/cm^2: No protection
